Literature values, collected in patent US7052486B2, “Method and system for treating depressive and anxiety disorders” (Medtronic, Inc., priority 2003, dated 2006).

Legend:
refractory depression = conditions: single intrathecal bolus
depression = conditions: administered parenterally (IV or SQ)
[1] = tested on: refractory obsessive-compulsive disorder (OCD); conditions: chronic parenteral use

| Compound | patients successfully treated for refractory depression (refractory depression) | time to rapid and dramatic improvement in the symptoms of severe depression (refractory depression) | response in depression (depression) | OCD behaviors [1] | symptoms of depression as measured by the Hamilton scale [1] |
| --- | --- | --- | --- | --- | --- |
| NC(=O)[C@@H]1CCCN1C(=O)[C@H](Cc1cnc[nH]1)NC(=O)[C@@H]1CCC(=O)N1 [TRH, Thyrotropin-releasing hormone] | 7 out of 10 | < 24 h | unpredictable responses | – | – |
| CNS(=O)(=O)Cc1ccc2[nH]cc(CCN(C)C)c2c1 [sumatriptan] | – | – | – | only modest reductions | significant improvements |
